Experimental data reported in PubChem BioAssay AID1963972 (Molecular Pharmacology Branch, DTP, NCI, 2024).

System: 945468-187-T-J2-PDC spheroids viability
Experiment: Anticancer human tumor 945468-187-T-J2-PDC patient-derived rectal carcinoma cell line growth inhibition [PI3K]
Settings: spheroids with HUVEC and MSC; for IC50: curve of first compound; for viability, T/C: stronger effect = lower value
In short: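 Spheroid viability read-out. Co-cultures contained the tumor line plus HUVEC and human MSCs. Each agent was paired with a PI3K inhibitor (inavolisib, alpelisib, duvelisib, copanlisib) across half-log dilutions starting at clinical Cmax, or at 10 microM when Cmax was unknown.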

[1] = second compound 0.0316 µM, first compound 0.0316 µM
[2] = second compound 0.0316 µM, first compound 0.1 µM
[3] = second compound 0.1 µM, first compound 0.0316 µM
[4] = second compound 0.1 µM, first compound 0.1 µM
[5] = second compound 0.316 µM, first compound 0.0316 µM
[6] = second compound 0.316 µM, first compound 0.1 µM
[7] = second compound 1 µM, first compound 0.0316 µM
[8] = second compound 1 µM, first compound 0.1 µM
[9] = second compound 3.16 µM, first compound 0.0316 µM
[10] = second compound 3.16 µM, first compound 0.1 µM
[11] = second compound 10 µM, first compound 0.0316 µM
[12] = second compound 10 µM, first compound 0.1 µM
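Note: spheroids exposed to compounds for seven days before reading.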

CC(C)NCC(C(=O)N1CCN(c2ncnc3c2C(C)CC3O)CC1)c1ccc(Cl)cc1 (centres undefined) + CC(Nc1ncnc2nc[nH]c12)c1cc2cccc(Cl)c2c(=O)n1-c1ccccc1 gave an IC50 (second compound 0.0316 µM) greater than 10 µM, an IC50 (second compound 0.1 µM) greater than 10 µM and an IC50 (second compound 0.316 µM) greater than 10 µM. For the same compound, the IC50 (second compound 1 µM) was greater than 10 µM, the IC50 (second compound 3.16 µM) was greater than 10 µM and the IC50 (second compound 10 µM) was greater than 10 µM. The viability, T/C [1] was 88.1%, the viability, T/C [2] was 82% and the viability, T/C (second compound 0.0316 µM, first compound 0.316 µM) was 111%. For the same compound, the viability, T/C (second compound 0.0316 µM, first compound 1 µM) was 74.2%, the viability, T/C (second compound 0.0316 µM, first compound 3.16 µM) was 116% and the viability, T/C (second compound 0.0316 µM, first compound 10 µM) was 77.2%. For the same compound, the viability, T/C [3] was 97.1%, the viability, T/C [4] was 93.1% and the viability, T/C (second compound 0.1 µM, first compound 0.316 µM) was 78%. The viability, T/C (second compound 0.1 µM, first compound 1 µM) was 84%, the viability, T/C (second compound 0.1 µM, first compound 3.16 µM) was 89.7% and the viability, T/C (second compound 0.1 µM, first compound 10 µM) was 77.7%. For the same compound, the viability, T/C [5] was 86.4%, the viability, T/C [6] was 76.6% and the viability, T/C (second compound 0.316 µM, first compound 0.316 µM) was 107%. The viability, T/C (second compound 0.316 µM, first compound 1 µM) was 97.5%, the viability, T/C (second compound 0.316 µM, first compound 3.16 µM) was 100% and the viability, T/C (second compound 0.316 µM, first compound 10 µM) was 76.9%. For the same compound, the viability, T/C [7] was 69.1%, the viability, T/C [8] was 97.6% and the viability, T/C (second compound 1 µM, first compound 0.316 µM) was 86.4%. The viability, T/C (second compound 1 µM, first compound 1 µM) was 106%, the viability, T/C (second compound 1 µM, first compound 3.16 µM) was 92.6% and the viability, T/C (second compound 1 µM, first compound 10 µM) was 67.9%. The viability, T/C [9] was 80.8%, the viability, T/C [10] was 75.3% and the viability, T/C (second compound 3.16 µM, first compound 0.316 µM) was 77%. The viability, T/C (second compound 3.16 µM, first compound 1 µM) was 116%, the viability, T/C (second compound 3.16 µM, first compound 3.16 µM) was 84.7% and the viability, T/C (second compound 3.16 µM, first compound 10 µM) was 76.9%. It also gave a viability, T/C [11] of 93.7%, a viability, T/C [12] of 96.1% and a viability, T/C (second compound 10 µM, first compound 0.316 µM) of 86.2%. It also gave a viability, T/C (second compound 10 µM, first compound 1 µM) of 103%, a viability, T/C (second compound 10 µM, first compound 3.16 µM) of 90.4% and a viability, T/C (second compound 10 µM, first compound 10 µM) of 81%.
Cn1ncnc1[C@H]1c2n[nH]c(=O)c3cc(F)cc(c23)N[C@@H]1c1ccc(F)cc1 + CC(Nc1ncnc2nc[nH]c12)c1cc2cccc(Cl)c2c(=O)n1-c1ccccc1 showed an IC50 (second compound 0.0316 µM) greater than 0.1 µM, an IC50 (second compound 0.1 µM) greater than 0.1 µM and an IC50 (second compound 0.316 µM) greater than 0.1 µM. The IC50 (second compound 1 µM) was greater than 0.1 µM, the IC50 (second compound 3.16 µM) was greater than 0.1 µM and the IC50 (second compound 10 µM) was greater than 0.1 µM. The viability, T/C (second compound 0.0316 µM, first compound 0.000316 µM) was 100%, the viability, T/C (second compound 0.0316 µM, first compound 0.001 µM) was 106% and the viability, T/C (second compound 0.0316 µM, first compound 0.00316 µM) was 85.3%. For the same compound, the viability, T/C (second compound 0.0316 µM, first compound 0.01 µM) was 93.1%, the viability, T/C [1] was 87.3% and the viability, T/C [2] was 89.8%. It also gave a viability, T/C (second compound 0.1 µM, first compound 0.000316 µM) of 89%, a viability, T/C (second compound 0.1 µM, first compound 0.001 µM) of 90.3% and a viability, T/C (second compound 0.1 µM, first compound 0.00316 µM) of 88%. For the same compound, the viability, T/C (second compound 0.1 µM, first compound 0.01 µM) was 88%, the viability, T/C [3] was 103% and the viability, T/C [4] was 109%. For the same compound, the viability, T/C (second compound 0.316 µM, first compound 0.000316 µM) was 115%, the viability, T/C (second compound 0.316 µM, first compound 0.001 µM) was 102% and the viability, T/C (second compound 0.316 µM, first compound 0.00316 µM) was 130%. It also gave a viability, T/C (second compound 0.316 µM, first compound 0.01 µM) of 97.5%, a viability, T/C [5] of 121% and a viability, T/C [6] of 96.8%. For the same compound, the viability, T/C (second compound 1 µM, first compound 0.000316 µM) was 88.8%, the viability, T/C (second compound 1 µM, first compound 0.001 µM) was 100% and the viability, T/C (second compound 1 µM, first compound 0.00316 µM) was 84.7%. It also gave a viability, T/C (second compound 1 µM, first compound 0.01 µM) of 108%, a viability, T/C [7] of 103% and a viability, T/C [8] of 110%. The viability, T/C (second compound 3.16 µM, first compound 0.000316 µM) was 120%, the viability, T/C (second compound 3.16 µM, first compound 0.001 µM) was 108% and the viability, T/C (second compound 3.16 µM, first compound 0.00316 µM) was 116%. It also gave a viability, T/C (second compound 3.16 µM, first compound 0.01 µM) of 128%, a viability, T/C [9] of 99.4% and a viability, T/C [10] of 111%. For the same compound, the viability, T/C (second compound 10 µM, first compound 0.000316 µM) was 117%, the viability, T/C (second compound 10 µM, first compound 0.001 µM) was 103% and the viability, T/C (second compound 10 µM, first compound 0.00316 µM) was 112%. It also gave a viability, T/C (second compound 10 µM, first compound 0.01 µM) of 105%, a viability, T/C [11] of 102% and a viability, T/C [12] of 109%.
